The source of these data is patent US20220274987A1, “PYRAZINO [1,2-B]QUINAZOLINE-3,6-DIONES DERIVATIVES, THEIR PRODUCTION AND USES THEREOF” (CIIMAR -CENTRO INTERDISCIPLINAR DE INVESTIGAÇÃO MARINHA E …, priority 2019, published 2022).

The subject of data set [1] is Plasmodium falciparum 3D7 strain. The data set is described as follows: In vitro susceptibility assay of P. falciparum, SYBR Green I. The following applies: for antimalarial activity (in words): P. falciparum 3D7; for IC50: Plasmodium falciparum. It counts as cell-based. On the procedure: The principle of the in vitro susceptibility test to malaria is to assess the degree of development of parasites P. falciparum in the presence of different concentrations of the compounds.
In the present disclosure, the antimalarial activity was also evaluated. Each compound was lyophilized and solubilized in DMSO (Sigma-Aldrich) to obtain a final concentration of 5 mM. Some intermediate dilutions were made to achieve the final concentration of 10 μM in the first well of the plate.
In an embodiment, the culture of P. falciparum was carried out as follows. […] Parasites were cultivated at 5% hematocrit, 37° C. and atmosphere with 5% of CO2, human serum was replaced with 0.5% AlbuMAXII (Invitrogen™) in the culture medium. Synchronized cultures were obtained by treatments with a 5% (m/v) solution of D-sorbitol (Sigma-Aldrich).
In the present disclosure, the in vitro susceptibility assay of P. falciparum using SYBR Green I was carried out as follows. […] Briefly, early ring stage parasites (>80% of rings, 3% haematocrit and 1% parasitaemia) were tested in duplicate in a 96-well plate and incubated with the compounds for 48 h (37° C., 5% CO2), parasite growth was assessed with SYBR Green I (Thermo Fisher Scientific). Each compound was tested in concentrations ranging from 10 to 0.001 μM. Fluorescence intensity was measured with a microplate reader with excitation and emission wavelengths of 485 and 535 nm, respectively, and analysed by nonlinear regression using GraphPad Prism 5 demo version to determine

In a further data set the test system is V79 cells. The following applies: for DL50: 24 h; for SI (Selectivity Index): calculated by LD50/IC50 (V79 / P. falciparum 3D7). As to the method:
In the present disclosure, the cytotoxicity in vitro against mammalian cell was carried out as follows. Cytotoxicity was assessed on the mammalian cell line V79 (Chinese hamster lung), using an MTT based assay, as previously described [38B]. Tests were conducted in triplicate for each compound, at a range of concentrations (800 μM to 0.0512 μM), and with culture media containing 0.5% DMSO (no drug control); incubation time 24 h. Absorbance was read at 570 nm on a multi-mode microplate reader to produce a log dose-dependence curve. The LD50 value for each compound was estimated by non-linear interpolation of the dose-dependence curve (GraphPad Software).

Data set [2] concerns healthy/non-parasitized erythrocytes. The data set is described as follows: Hemotoxicity in vitro (hemolysis assay). It counts as cell-based, human. The note with it: at ≤10 μM.
Description: In an embodiment, the evaluation of hemotoxicity in vitro was performed as follows. The in vitro hemolysis assay evaluates the release of hemoglobin in the medium (as an indicator of lysis of erythrocytes) after exposure to the test compounds.
In the present disclosure, the evaluation of hemotoxicity in vitro was performed as follows. In a 96-flat bottom plate 3% HTC, 20 μL of 20% Triton X-100, and 20 μL of PBS or RPMIc in 2% DMSO was added. Compounds were tested in a 1:4 serial dilution in concentrations ranging from 10 μM to 0.04 μM. After the incubation of 60 minutes, the plate was centrifuged at 2000 rpm for 5 minutes. 100 mL of Supernatant was transferred to a flat bottom plate. The absorbance reading was made at 450 nm in a Mode (Triad, Dynex Technologies). Two independent tests were carried out in triplicate. The results are presented in the form of a percentage of hemolysis-% hemolysis, obtained by the following formula; % Hemolysis=ABS (sample)/abs (C+)×100. Whereas C+ is a Triton x-100 to 20% solution RPMIc.
For another data set, the system named is hemozoin (β-hematin). Kind of data set: Inhibition of polymerization of hemozoin (β-hematin) in vitro. The following applies: 12 and 16 at 48.0, 24.0, 12.0 μM; 31 at 96.0, 48.0, 24.0 μM; 24 h.
The test system of data set [3] is Staphylococcus aureus ATCC 29213. Kind of data set: MIC/MBC broth dilution (CLSI), S. aureus reference strain. The following applies: for MBC / MIC: Staphylococcus aureus, ATCC29213. Format: cell-based. The source says:
(§1) In the present disclosure, two Gram-positive—Staphylococcus aureus ATCC 29213 and Enterococcus faecalis ATCC […] and two Gram-negative—Escherichia coli ATCC 25922 and Pseudomonas aeruginosa ATCC 27853—reference bacterial strains were used. When it was possible to determine a minimal inhibitory concentration (MIC) value for these strains, clinically relevant strains were also used. These included methicillin-resistant S. uareus (MRSA) 66/1, isolated from public buses, as well as a isolate sensitive to the most commonly used antibiotic families (S. aureus 40/61/24) and two vancomycin-resistant Enterococcus (VRE) strains isolated from river water, E. faecalis B3/101 and E. faecalis A5/102, which is sensitive to ampicillin. Frozen stocks of all strains were grown on Mueller-Hinton agar (MH-BioKar Diagnostics, Allone, France) at 37° C. for 24 h. All bacterial strains were sub-cultured on MH agar and incubated overnight at 37° C. before each assay, in order to obtain fresh cultures.
(§2) An initial screening of the antibacterial activity of the compounds was performed by the Kirby-Bauer disk diffusion method, as recommended by the Clinical and Laboratory Standards institute (CLSI). Briefly, sterile 6 mm blank paper disks (Oxoid, Basingstoke, England) impregnated with 15 μg of each compound were placed on inoculated MH agar plates. A blank disk with DMSO was used as a negative control. MH inoculated plates were incubated for 18-20 hours at 37° C. At the end of the incubation, the inhibition halos where measured. The minimal inhibitory concentration (MIC) was used to determine the antibacterial activity of each compound, in accordance with the recommendations of the CLSI. Two-fold serial dilutions of the compounds were prepared in Mueller-Hinton Broth 2 (MHB2-Sigma-Aldrich, St. Louis, Mo., USA) within the concentration range of 0.062-64 μg/mL. Cefotaxime (CTX) ranging between 0.031-16 μg/mL was used as a control. Sterility and growth controls were included in each assay. Purity check and colony counts of the inoculum suspensions were also performed in order to ensure that the final inoculum density closely approximates the intended number ([…]). The MIC was determined as the lowest concentration at which no visible growth was observed. The minimal bactericidal concentration (MBC) was assessed by spreading 10 μL of culture collected from wells showing no visible growth on MH agar plates. The MBC was determined as the lowest concentration at which no colonies grew after 16-18 hours incubation at 37° C. These assays were performed in duplicate.
For orientation: In broth dilution the organism is exposed to a series of concentrations in liquid medium.

The next data set relates to S. aureus 40/61/24. Kind of data set: MIC/MBC broth dilution (CLSI), sensitive clinical isolate. It counts as cell-based. The following applies: Staphylococcus aureus; for MIC: 40/61/24; for MBC: S. aureus 40/61/24.
Source text: as §1, §2

Another data set concerns S. aureus 66/1 (MRSA). Kind of data set: MIC/MBC broth dilution (CLSI), MRSA. It counts as cell-based. The following applies: Staphylococcus aureus.
Source text: as §1, §2

A further data set deals with E. faecalis ATCC 29212. The data set is described as follows: MIC/MBC broth dilution (CLSI), E. faecalis reference strain. It counts as cell-based, Enterococcus faecalis. The following applies: for MBC / MIC: Enterococcus faecalis.
Source text: as §1, §2

For the next data set, the system named is E. faecalis A5/102 (VRE). The data set is described as follows: MIC/MBC broth dilution (CLSI), VRE sensitive to ampicillin. Format: cell-based. The following applies: Enterococcus faecalis.
Source text: as §1, §2

The test system of another data set is E. faecalis B3/101 (VRE). Kind of data set: MIC/MBC broth dilution (CLSI), VRE. It counts as cell-based. The note with it: Enterococcus faecalis.
Source text: as §1, §2

The next data set concerns hemozoin. The note with it: trophozoite stage; cited from earlier work.
A further data set relates to P. falciparum 3D7 strain. The note with it: cited from earlier work.
The subject of another data set is Staphylococcus aureus. The note with it: cited from earlier work.
A further data set relates to Enterococcus faecalis. The following applies: cited from earlier work.
Another data set relates to Vibrio harvevi. The note with it: cited from earlier work.
[4] abbreviates: P. falciparum (3D7), 48 h, read-out: IC50.
[5] abbreviates: S. aureus ATCC 29213, read-out: MIC.

Values after ≈ are worked out from the molar mass of the structure shown. Like-named read-outs stand apart in the source and are kept apart here. Where only a bound is given, the exact number is not on record here.

A word on the IC50: it is the concentration that gives 50% inhibition. With `CC(C)[C@@H]1NC(=O)[C@@H](Cc2c[nH]c3ccccc23)n2c1nc1ccccc1c2=O` [Compound 12, fiscalin B], in [1], the “antimalarial activity (in words)” value is given as “highest antimalarial activity”. For the same compound, the IC50 in data set [1] (setting [4]) was found to be 100 ± 20 nM. In the data set with V79 cells (Chinese hamster), this compound returned a DL50 of 1.91 ± 0.44 µM. Also, in the data set with V79 cells, the “SI (Selectivity Index)” value was 19. In addition, in data set [2], the “hemolytic activity (in words)” value is “no hemolytic activity”. Further, the “inhibition of the polymerization of β-hematin in vitro (in words)” value (“inhibition of the polymerization … (in words)” for short) with hemozoin (β-hematin) is “did not show to inhibit”.
For the compound `CC(C)C[C@@H]1NC(=O)[C@@H](Cc2c[nH]c3ccccc23)n2c1nc1ccccc1c2=O` [Compound 16], the “antimalarial activity (in words)” value in data set [1] is on record as “highest antimalarial activity”. The IC50 in data set [1] (setting [4]) amounted to 50 ± 20 nM. Further, the DL50 with V79 cells (Chinese hamster) came out at 1.78 ± 0.47 µM. The “SI (Selectivity Index)” value with V79 cells is reported as 34. Moreover, in data set [2], the “hemolytic activity (in words)” value is on record as “no hemolytic activity”. In addition, the “inhibition of the polymerization … (in words)” value in the data set on hemozoin (β-hematin) is “did not show to inhibit”.
The term MBC denotes the lowest tested concentration that kills the bacteria rather than only halting them. Low readings indicate more potent killing, high ones less potent killing. By MIC is commonly meant the smallest concentration in the dilution series that meets the test's criterion for growth inhibition. On to `CC(C)C[C@@H]1NC(=O)[C@@H](Cc2c[nH]c3ccccc23)n2c1nc1ccc(Cl)cc1c2=O` [Compound 28], for which the “antibacterial (inhibitory) effect (in words)” value (in [3] (S. aureus ATCC 29213); in the data set on E. faecalis ATCC 29212) was “inhibitory effect” in each case. In addition, the MBC (in data set [3] (S. aureus ATCC 29213); against S. aureus 40/61/24; with S. aureus 66/1 (MRSA); in the data set on E. faecalis ATCC 29212 (ATCC29212); with E. faecalis A5/102 (VRE); with E. faecalis B3/101 (VRE)) was over 64 µg/mL throughout. Moreover, the minimum inhibitory concentration (MIC) is 32 µg/mL (≈ 73.6 µM) in [3] (setting [5]); 64 µg/mL (≈ 147 µM) in the data set with S. aureus 40/61/24; over 64 µg/mL in the data set with S. aureus 66/1 (MRSA); 32 µg/mL (≈ 73.6 µM) against E. faecalis ATCC 29212 (ATCC29212); 64 µg/mL (≈ 147 µM) in the data set with E. faecalis A5/102 (VRE); over 64 µg/mL in the data set on E. faecalis B3/101 (VRE).
For `CC[C@H](C)[C@@H]1NC(=O)[C@@H](Cc2c[nH]c3ccccc23)n2c1nc1ccc(Cl)cc1c2=O` [Compound 29, (1S,4R)-4-((1H-indol-3-yl)methyl)-1-((S)-sec-butyl)-8-chloro-1,2-dihydro-6H-pyrazino[2,1-b]quinazoline-3,6(4H)-dione], the “antibacterial (inhibitory) effect (in words)” value (in data set [3] (S. aureus ATCC 29213); with E. faecalis ATCC 29212) was “inhibitory effect” throughout. Moreover, the MIC in data set [3] was 16 µg/mL (≈ 36.8 µM); in the data set on S. aureus 40/61/24, 64 µg/mL (≈ 147 µM); in the data set on S. aureus 66/1 (MRSA) it was over 64 µg/mL; against E. faecalis ATCC 29212 (ATCC29212), 32 µg/mL (≈ 73.6 µM); against E. faecalis A5/102 (VRE) it was 64 µg/mL (≈ 147 µM); against E. faecalis B3/101 (VRE), over 64 µg/mL. Besides, the MBC (in [3] (S. aureus ATCC 29213); against S. aureus 40/61/24; against S. aureus 66/1 (MRSA); with E. faecalis ATCC 29212 (ATCC29212); against E. faecalis A5/102 (VRE); with E. faecalis B3/101 (VRE)) was over 64 µg/mL throughout.
In the case of `CC(C)C[C@@H]1NC(=O)[C@@H](Cc2c[nH]c3ccccc23)n2c1nc1c(Cl)cc(Cl)cc1c2=O` [Compound 31, (1S, 4R)-4-((1H-indol-3-yl)methyl)-8,10-dichloro-1-isobutyl-1,2-dihydro-6H-pyrazino[2,1-b]quinazoline-3,6(4H)-dione], in data set [3] (S. aureus ATCC 29213), the “antibacterial (inhibitory) effect (in words)” value is “inhibitory effect”. For the same compound, the MBC (in data set [3] (S. aureus ATCC 29213); with S. aureus 40/61/24; against S. aureus 66/1 (MRSA); in the data set on E. faecalis ATCC 29212 (ATCC29212)) was over 64 µg/mL throughout. Also, the minimal inhibitory concentration (MIC) was 4 µg/mL (≈ 8.52 µM) in data set [3] (setting [5]); 8 µg/mL (≈ 17 µM) against S. aureus 40/61/24; 8 µg/mL (≈ 17 µM) against S. aureus 66/1 (MRSA); over 64 µg/mL in the data set on E. faecalis ATCC 29212 (ATCC29212, read-out: MIC). In data set [1], the “antimalarial activity (in words)” value was “highest antimalarial activity”. Also, half-maximal inhibition in [1] (3D7, 48 h) (IC50) was put at 200 nM. The DL50 in the data set on V79 cells (Mammalian cells (V79), MTT) came to 14.00 ± 1.41 µM. Further, the “hemolytic activity (in words)” value in data set [2] is “no hemolytic activity”. In the data set with hemozoin (β-hematin), the “inhibition of the polymerization … (in words)” value is listed as “did not show to inhibit”.
For `O=C(C[C@H]1NCCC[C@@H]1O)Cn1cnc2ccccc2c1=O` [Febrifugine (9, FF), febrifugine], the “inhibition of the formation of hemozoin (in words)” value in the data set on hemozoin is on record as “significantly inhibits”.
One may read the EC50 as the concentration giving half of the maximal effect. For `Clc1ccc2nccc(N3CCC(CN4CCC(c5c[nH]c6ccccc56)CC4)CC3)c2c1` [TCMDC-134281 (8), TCMDC-134281], the EC50 with P. falciparum 3D7 strain is 34 nM.
With `CC(C)[C@@H]1NC(=O)[C@@H](C[C@]2(O)c3ccccc3N3C(=O)[C@@H](C)N[C@H]32)n2c1nc1ccccc1c2=O` [neofiscalin A (2), neofiscalin A], the MIC with Staphylococcus aureus and in the data set on Enterococcus faecalis was 8 µg/mL (≈ 16.9 µM) each time.
Take glyantypine [glyantypine (1)]: the MIC in the data set with Vibrio harvevi was 32 µg/mL.
